Assay [1] addresses T1, CDK4 (Cyclin D1 and cyclin-dependent kinase 4) (Homo sapiens, UniProt P11802).
T1 construct: made in house
Nature of the assay: CDK4 substrate phosphorylation assay (Rb protein). Type of assay: biochemical. Particulars: read-out: CDK4 inhibition. As to the method: (§1) The compounds of the present invention have valuable pharmacologic properties. Different compounds from this class are particularly effective at inhibiting CDK2 and/or CDK4 enzymes at concentrations, which range from 0.0001 to 1 μM and additionally show specificity relative to other kinases. Substrate phosphorylation assays were carried out as follows:
Cyclin D1 and cyclin-dependent kinase 4 were expressed utilizing a baculovirus expression system. The catalytic activity of CDK4 protein was assayed by measuring the phosphorylation of Rb protein. A truncated Rb protein (residues 773-928 of the native retinoblastoma protein, fused to glutathione S-transferase to facilitate purification) was used as the phosphoryl acceptor. The assay conditions were 100 mM HEPES (N-[2-hydroxyethyl]piperzine-N′-[2-ethanesulfonic acid]), pH 7.5, 0.5 μM GST-Rb protein, 1 μCi/mL [^33P]-ATP (1 nM-20 μM), 5-20 mM MgCl2, 2.5 mM EDTA, 1 mM dithiothieitol, 0.2 mg/mL bovine serum albumin, 2% (v/v) dimethyl sulfoxide (DMSO), CDK4 enzyme (5-50 nM) in a final volume of 50 μL. Reactions were incubated for time periods of 10-60 min at 30° C. and terminated by the addition of 50 μL quench (1 mM ATP/100 mM EDTA, pH 7.0). Detection of protein phosphorylation was accomplished by scintillation counting following collection of protein in 96 well plates coated with Glitathione or trapping of protein onto phosphocellulose filters. Counts detected by these methodologies minus the appropriate background were assumed to be proportional to the reaction initial rates. IC50 values were determined by measuring enzyme activity in the presence of different inhibitor concentrations (0.1 nM to 50 μM). IC50s were determined by a least squares fit to the equation CPM=Vmax*(1−([I]/(K+[I])))+nsb, or pIC50s were determined by a fit to the equation CPM=nsb+(Vmax−nsb)/(1+(x/10^x−pIC50)), where nsb are the background counts.

In the next assay the target is T2, CDK2 (Homo sapiens, UniProt P24941).
T2 construct: made in house
Nature of the assay: CDK2 substrate phosphorylation assay (biotinylated peptide). Type of assay: biochemical. The conditions noted are these: read-out: CDK2 inhibition. As to the method: as §1
Cyclin dependent protein kinase 2 assays utilized the peptide Biotin-aminohexyl-ARRPMSPKKKA-NH2 as phosphoryl group acceptor. CDK2 was expressed utilizing a baculovirus expression system and was partially purified to comprise 20-80% of total protein, with no detectable competing reactions present. Typically, assays were performed by incubating enzyme (0.2-10 nM), with and without inhibitor, peptide substrate (1-10 nM), [g-^32P]ATP (1-20 nM), and 10-20 mM Mg^2+ for periods of time generally within the range 10-120 minutes. Reactions were terminated with 0.2-2 volumes of either 20% acetic acid or 50-100 mM EDTA buffered to pH 7 (substrate consumption <20%). The buffer employed in enzyme assay was 100 mM HEPES pH 7.5 containing 0.1 mg/mL BSA and 5% DMSO. Inhibitors were diluted in 100% DMSO prior to addition into the assay. Detection of peptide phosphorylation was accomplished by scintillation counting following either collection of peptide onto phosphocellulose filters (for reactions stopped with acetic acid), collection of peptide in wells of 96 well plates coated with Streptavidin (Pierce) (reactions were stopped with EDTA), or addition of Avidin coated Scintillant impregnated beads (Scintillation Proximity Assays from Amersham, reactions were stopped with EDTA). […] Radioactivity was determined by liquid scintillation counting.

Assay [2] relates to human tumor cells (U2OS, MDA-MB-231, SaOs-2, MDA-MB-468). Nature of the assay: Anti-proliferation cell-based assay (BrdU incorporation). The conditions noted are these: 18 hr compound incubation, cell line not given, read-out: Anti-proliferative activity. As to the method: Anti-Proliferation Cell-Based Assay
The anti-proliferative activity of compounds was determined measuring the rate of DNA synthesis by bromodeoxyuridine (BrdU) incorporation into cellular DNA. The amount of BrdU in cellular DNA was detected using an anti-BrdU antibody in an ELISA format to allow for rapid throughput. Log-phase growing human tumor cells either containing functional Rb (U2OS, MDA-MB-231) or lacking functional Rb protein (SaOs-2, MDA-MB-468) were plated in medium into 96-well plates (1−6×10^3 cells/100 μL medium/well) and allowed to incubate overnight […]. Compounds (concentration range of 0.046-100 μM) were diluted in medium (final DMSO (v/v) 0.8%), added to wells containing cells, and incubated for 18 hr at 37° C. BrdU (100 μM) was added and incubated for 4 hr. Cells were rinsed with PBS and DNA was denatured by addition of fixation/denaturation solution. Anti-BrdU antibody conjugated to horseradish peroxidase in 1% BSA was added for 2 hr at room temperature. Cells were washed, the chemiluminescence reagent was added, and plates were read in luminometer.
A general note: Dividing cells build labelled thymidine or BrdU into new DNA.

Molecules are shown by their SMILES. Bounds are passed on as bounds.

T1 sequence (P11802 whole entry): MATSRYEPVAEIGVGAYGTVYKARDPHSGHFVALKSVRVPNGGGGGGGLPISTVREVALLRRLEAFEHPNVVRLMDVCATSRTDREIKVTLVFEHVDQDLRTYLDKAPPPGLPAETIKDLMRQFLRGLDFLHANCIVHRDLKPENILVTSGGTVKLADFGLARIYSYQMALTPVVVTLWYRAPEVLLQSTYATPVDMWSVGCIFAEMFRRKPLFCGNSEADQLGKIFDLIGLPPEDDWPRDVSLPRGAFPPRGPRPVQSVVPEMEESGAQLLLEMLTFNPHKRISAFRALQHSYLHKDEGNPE
T1 sequence (P24385 whole entry partner): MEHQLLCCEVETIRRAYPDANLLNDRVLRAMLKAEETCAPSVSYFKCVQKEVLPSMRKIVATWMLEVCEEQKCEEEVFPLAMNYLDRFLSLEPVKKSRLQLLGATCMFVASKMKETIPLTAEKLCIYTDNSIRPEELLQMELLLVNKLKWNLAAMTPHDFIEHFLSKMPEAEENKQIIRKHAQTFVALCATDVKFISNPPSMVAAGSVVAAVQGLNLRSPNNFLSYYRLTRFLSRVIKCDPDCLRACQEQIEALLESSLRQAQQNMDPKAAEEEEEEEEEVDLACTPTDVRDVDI

On to `CN(C)Cc1ccc(N/C=C2\C(=O)Nc3ccc4ncccc4c32)cc1` [Example 1, 1-[(Z)-(4-Dimethylaminomethylanilino)methylidene]-1,3-dihydro-2H-pyrrolo[3,2-f]quinoline-2-one], for which the IC50 in assay [1] was < 100 nM; on CDK2 it was < 1000 nM; in assay [2] it was < 1000 nM.
With `CC(C)CN(C)Cc1ccc(N/C=C2\C(=O)Nc3ccc4ncccc4c32)cc1` [Example 6, 1-[(Z)-(4-(N-Methyl)-2-methylpropylaminomethylanilino)methylidene]-1,3-dihydro-2H-pyrrolo[3,2-f]quinoline-2-one], the IC50 was < 100 nM in assay [1], < 1000 nM on CDK2 and < 100 nM in assay [2].
As to `O=C1Nc2ccc3ncccc3c2/C1=C/Nc1ccc(CN2CCOCC2)cc1` [Example 10, 1-[(Z)-(4-(4-morpholinyl)methylanilino)methylidene]-1,3-dihydro-2H-pyrrolo[3,2-f]quinoline-2-one], the IC50 in assay [1] was < 100 nM; on CDK2, < 100 nM; in assay [2], < 1000 nM.

For the origin of these results see patent US6720332B2, “Oxindole derivatives” (SmithKline Beecham Corporation, priority 2000, dated 2004).
